The nature of this data set: in vitro. The following applies: human, hela cells, % viability.
As to `Cc1n[nH]c(-c2ccc(OCc3cnn(-c4ccccc4)c3)cc2O)c1Oc1ccc(F)cc1` [CBK264461], the viability at 28.5 h, 10 µM came out at 116%.

Turning to `CC(=O)Nc1ccc(NC(=O)CSC2=C(C#N)C(c3ccco3)C3=C(CCCC3=O)N2)cc1` (centres unmarked) [CBK264462], the viability at 28.5 h, 10 µM worked out at 91.8%.

`COc1ccc(C2C(C(=O)c3ccc(C)cc3)=C(O)C(=O)N2CCN(C)C)cc1OC` (centres unmarked) [CBK264463]: the viability at 28.5 h, 10 µM was found to be 90.1%.

With `Cc1ccc(NC(=O)CN2C(=O)S/C(=C\c3cc(C)n(-c4ccc(C(=O)O)cc4)c3C)C2=O)cc1` [CBK264465], the viability at 28.5 h, 10 µM was 91.6%.

Turning to `Cc1cc(C)n(CC(O)CN(c2ccccc2)S(=O)(=O)c2ccccc2)n1` (centres unmarked) [CBK264469], the viability at 28.5 h, 10 µM was determined as 118%.

Regarding `CC1CCN(S(=O)(=O)c2cc(C(=O)OCC(=O)c3ccccc3)c(Cl)cc2Cl)CC1` [CBK264470], the viability at 28.5 h, 10 µM was 95.6%.

`CN(C)CCNc1nc(-c2cccnc2)nc2ccccc12` [CBK264471C]: the viability at 28.5 h, 10 µM worked out at 99.7%.

For the molecule `CCC(NS(=O)(=O)c1ccc(Br)cc1)C(=O)O` (centres unmarked) [CBK264472], the viability at 28.5 h, 10 µM was 97%.

Turning to `COc1ccc(C2=NN(c3ccc([N+](=O)[O-])cc3)C(=O)/C2=C\c2cccc(OC)c2OC)cc1` [CBK264475], the viability at 28.5 h, 10 µM stood at 96%.

For the molecule `C=CCn1c(SCC(=O)Nc2sc3c(c2C#N)CCC3)nc2scc(-c3ccccc3)c2c1=O` [CBK264477], the viability at 28.5 h, 10 µM was 104%.

For the molecule `O=C(Oc1ccc2c(=O)c(Oc3ccc(-c4ccccc4)cc3)coc2c1)c1cccnc1` [CBK264479], the viability at 28.5 h, 10 µM was determined as 97.6%.

For `CCCC12CN3CC(CCC)(CN(C1)C3c1ccc([N+](=O)[O-])cc1)C2=O` (centres unmarked) [CBK264481], the viability at 28.5 h, 10 µM stood at 101%.

Turning to `COC(=O)c1ccc(/C=N/N=C2\NC(=O)C(CC(=O)Nc3ccccc3)S2)cc1` (centres unmarked) [CBK264483], the viability at 28.5 h, 10 µM was found to be 93.6%.

Turning to `COCCN1C(=O)/C(=C2/C(=O)N(CC(=O)Nc3ccccc3)c3ccccc32)SC1=S` [CBK264489], the viability at 28.5 h, 10 µM was found to be 91.3%.

`O=C1CC(c2ccccc2)CC(NCc2ccccc2)=C1C(=S)Nc1ccccc1` (centres unmarked) [CBK264491]: the viability at 28.5 h, 10 µM stood at 104%.

`CC1(C)CC(=O)C(C(=S)Nc2ccccc2)=C(NCc2ccccc2)C1` [CBK264498]: the viability at 28.5 h, 10 µM is 91.6%.

Consider `O=C(CC1S/C(=N/N=C/c2ccc(-c3ccc(Br)cc3)o2)NC1=O)Nc1ccccc1` (centres unmarked) [CBK264499], for which the viability at 28.5 h, 10 µM was 106%.

For `Cc1ccc(NC(=O)CN2C(=O)S/C(=C\c3ccc4c(c3)n(C)c(=O)n4C)C2=O)cc1` [CBK264501], the viability at 28.5 h, 10 µM came to 112%.

On to `Cc1ccc(C2C(C(=O)c3ccc(Cl)cc3)=C(O)C(=O)N2CCCN2CCOCC2)o1` (centres unmarked) [CBK264514], for which the viability at 28.5 h, 10 µM is 92.6%.

Take `O=C(CC1S/C(=N/N=C/c2ccccc2C(=O)O)NC1=O)Nc1ccccc1` (centres unmarked) [CBK264515]: the viability at 28.5 h, 10 µM worked out at 99.7%.

On to `COc1ccc(-c2ccc(/C=N/N=C3\NC(=O)C(CC(=O)O)S3)o2)c([N+](=O)[O-])c1` (centres unmarked) [CBK264516], for which the viability at 28.5 h, 10 µM was found to be 102%.

On to `O=C(Oc1c(Cl)cc(Cl)c2cccnc12)c1cc(S(=O)(=O)N2CCCCC2)ccc1Cl` [CBK264518], for which the viability at 28.5 h, 10 µM was determined as 100%.

For `CN(C)Cc1c(O)ccc2c(=O)c(Oc3ccc(-c4ccccc4)cc3)c(C(F)(F)F)oc12` [CBK264519], the viability at 28.5 h, 10 µM came out at 107%.

As to `CN(C)S(=O)(=O)c1ccc(C(=O)C2=C(O)C(=O)N(CCN3CCOCC3)C2c2ccco2)cc1` (centres unmarked) [CBK264521], the viability at 28.5 h, 10 µM came to 93.4%.

As to `O=C(C1=C(O)C(=O)N(Cc2cccnc2)C1c1cccnc1)c1ccccc1` (centres unmarked) [CBK264522], the viability at 28.5 h, 10 µM stood at 99.5%.

Turning to `CCCCOC(=O)CCc1nc2ccccc2nc1O` [CBK264523], the viability at 28.5 h, 10 µM stood at 97.3%.

On to `NCCCNC(=O)c1ccc(/C=N/O)nc1` [CBK264524], for which the viability at 28.5 h, 10 µM came out at 110%.

Regarding `CCCOc1ccc(-c2nn(-c3ccccc3)cc2/C=C2\SC(=S)N(CC(=O)O)C2=O)cc1` [CBK264525], the viability at 28.5 h, 10 µM was 111%.

On to `O=C(C1=C(O)C(=O)N(CCCn2ccnc2)C1c1ccncc1)c1ccccc1` (centres unmarked) [CBK264527], for which the viability at 28.5 h, 10 µM was 91.6%.

As for `O=C(C1=C(O)C(=O)N(CCCN2CCOCC2)C1c1cccnc1)c1ccco1` (centres unmarked) [CBK264528], the viability at 28.5 h, 10 µM came out at 102%.

On to `O=C(CC1S/C(=N/N=C/c2cn(Cc3ccccc3)c3ccccc23)NC1=O)Nc1ccccc1` (centres unmarked) [CBK264529], for which the viability at 28.5 h, 10 µM came out at 84%.

On to `CN(C)CCCN1C(=O)C(O)=C(C(=O)c2ccc(F)cc2)C1c1cccnc1` (centres unmarked) [CBK264531], for which the viability at 28.5 h, 10 µM was 107%.

With `N#Cc1c(NC(=O)c2cc(S(=O)(=O)N3CCOCC3)cs2)sc2c1CCCC2` [CBK264532], the viability at 28.5 h, 10 µM was 102%.

As to `Cc1ccc(C(=O)NCC(=O)O)cc1S(=O)(=O)N1CCOCC1` [CBK264534], the viability at 28.5 h, 10 µM turned out to be 90.9%.

As for `COC(=O)CCN(C)CCC(=O)OC` [CBK264539C], the viability at 28.5 h, 10 µM amounted to 95.4%.

For the molecule `COc1ccc(C2C(C(=O)c3ccco3)=C(O)C(=O)N2CCN2CCOCC2)cc1OC` (centres unmarked) [CBK264544], the viability at 28.5 h, 10 µM worked out at 98.8%.

Turning to `O=C(Oc1cccc2cccnc12)c1cccc(S(=O)(=O)Oc2cccc3cccnc23)c1` [CBK264545], the viability at 28.5 h, 10 µM was 58.4%.

Take `CC(C)c1ccc(C2C(C(=O)c3ccco3)=C(O)C(=O)N2CCCN(C)C)cc1` (centres unmarked) [CBK264549]: the viability at 28.5 h, 10 µM is 94.8%.

As to `O=C(NCCc1c[nH]c2ccccc12)c1cc2c(ccc3ccccc32)oc1=O` [CBK264550], the viability at 28.5 h, 10 µM is 91.5%.

On to `O=C(Nc1sc2c(c1C(=O)O)CCCC2)c1cc2ccccc2o1` [CBK264551], for which the viability at 28.5 h, 10 µM was determined as 91%.

Take `O=C(O)CCCN1C(=O)/C(=C\c2ccccn2)SC1=S` [CBK264552]: the viability at 28.5 h, 10 µM was found to be 92.4%.

Regarding `O=C(Nc1ccccc1O)c1cc(S(=O)(=O)N2CCCCCC2)ccc1Cl` [CBK264554], the viability at 28.5 h, 10 µM was found to be 89.1%.

As for `O=C(NCCCN1CCOCC1)c1ccncc1` [CBK264561F], the viability at 28.5 h, 10 µM amounted to 110%.

Take `COc1ccc(C2=NN(c3ccc([N+](=O)[O-])cc3)C(=O)/C2=C\NCCN2CCOCC2)cc1` [CBK264563]: the viability at 28.5 h, 10 µM amounted to 114%.

As to `O=C(C1=C(O)C(=O)N(CCCN2CCOCC2)C1c1ccc(Cl)c(Cl)c1)c1cccs1` (centres unmarked) [CBK264565], the viability at 28.5 h, 10 µM was determined as 104%.

`c1cncc(-c2nc(NCCN3CCOCC3)c3ccccc3n2)c1` [CBK264566C]: the viability at 28.5 h, 10 µM turned out to be 91%.

`O=C(Nc1cccnc1)c1cc(S(=O)(=O)N2CCCCC2)c(Cl)cc1Cl` [CBK264567]: the viability at 28.5 h, 10 µM was found to be 91.9%.

Turning to `CC(=O)C1=C(O)C(=O)N(CCN2CCOCC2)C1c1cccc([N+](=O)[O-])c1` (centres unmarked) [CBK264568], the viability at 28.5 h, 10 µM was 98%.

As to `O=C(COc1ccc(C2CCCCC2)cc1)Nc1cccc(-c2nc3ncccc3o2)c1` [CBK264569], the viability at 28.5 h, 10 µM came to 90.9%.

With `O=C(C1=C(O)C(=O)N(CCN2CCOCC2)C1c1cccnc1)c1ccco1` (centres unmarked) [CBK264570], the viability at 28.5 h, 10 µM turned out to be 97.4%.

For `O=C(C1=C(O)C(=O)N(CCCn2ccnc2)C1c1cccc([N+](=O)[O-])c1)c1ccc(F)cc1` (centres unmarked) [CBK264571], the viability at 28.5 h, 10 µM stood at 97.8%.

In the case of `N#Cc1nc(-c2ccccc2)oc1NCCN1CCCCC1` [CBK264573], the viability at 28.5 h, 10 µM worked out at 93.5%.

For the molecule `COc1cc(/C=c2\sc3nc(-c4ccccc4OC(C)=O)nn3c2=O)ccc1OCc1ccccc1` [CBK264575], the viability at 28.5 h, 10 µM was found to be 99.2%.

As to `N#Cc1c(NC(=O)c2cc(S(=O)(=O)N3CCCCC3)c(Cl)cc2Cl)sc2c1CCCC2` [CBK264579], the viability at 28.5 h, 10 µM was found to be 104%.

Turning to `O=[N+]([O-])c1ccc(CSc2nnc(-c3cccnc3)n2Cc2ccco2)cc1` [CBK264580], the viability at 28.5 h, 10 µM stood at 106%.

With `O=C(O)CC(C(=O)Nc1ccc(Cl)cc1)C1CCCO1` (centres unmarked) [CBK264583], the viability at 28.5 h, 10 µM was found to be 94.2%.

On to `Cc1sc2nc(SCc3cc(O)[nH]n3)nc(N)c2c1C` [CBK264585], for which the viability at 28.5 h, 10 µM was found to be 88.6%.

As for `Cc1cccc(NC(=O)CN2C(=O)S/C(=C\c3cc(C)n(-c4ccc(N(C)C)cc4)c3C)C2=O)c1` [CBK264586], the viability at 28.5 h, 10 µM is 96.9%.

`Cc1ccc(S(N)(=O)=O)cc1C(=O)OCC(=O)c1ccccc1` [CBK264588]: the viability at 28.5 h, 10 µM came out at 113%.

For `Cc1ccc(S(=O)(=O)CC(CN2CCOCC2)N2CCOCC2)cc1` (centres unmarked) [CBK264590], the viability at 28.5 h, 10 µM was 99.1%.

In the case of `O=C(O)CC1S/C(=N/N=C/c2ccc(-c3ccc(Cl)cc3)o2)NC1=O` (centres unmarked) [CBK264595], the viability at 28.5 h, 10 µM was determined as 125%.

Consider `COc1ccc([N+](=O)[O-])cc1COc1ccc2ccc(=O)oc2c1` [CBK264597], for which the viability at 28.5 h, 10 µM was 106%.

Turning to `CC1(C)C(=O)OC(C(=O)c2ccc(Br)cc2)C(C)(C)C1=O` (centres unmarked) [CBK264600], the viability at 28.5 h, 10 µM came to 90.3%.

For `O=C(O)COc1cccc(NC(=O)c2ccccc2)c1` [CBK264602], the viability at 28.5 h, 10 µM was 88.3%.

Regarding `CCOc1ccc(C(=O)C2=C(O)C(=O)N(CCN(C)C)C2c2ccc(N(C)C)cc2)c(C)c1` (centres unmarked) [CBK264603], the viability at 28.5 h, 10 µM amounted to 110%.

Turning to `CCC12CN3CC(CC)(CN(C1)C3c1ccccc1[N+](=O)[O-])C2=O` (centres unmarked) [CBK264604], the viability at 28.5 h, 10 µM came out at 116%.

For `COc1cc(C2C(C(=O)c3cccs3)=C(O)C(=O)N2Cc2cccnc2)ccc1O` (centres unmarked) [CBK264605], the viability at 28.5 h, 10 µM is 110%.

As for `CC(CN1CCOCC1)OC(=O)c1ccco1` (centres unmarked) [CBK264606C], the viability at 28.5 h, 10 µM came to 92.9%.

For `O=C(Nc1sc2c(c1C(=O)NCC1CCCO1)CCCC2)c1ccccc1[N+](=O)[O-]` (centres unmarked) [CBK264608], the viability at 28.5 h, 10 µM was determined as 102%.

As for `O=[N+]([O-])c1cccc(CN2CCC(N3CCN(Cc4ccccc4)CC3)CC2)c1` [CBK264609G], the viability at 28.5 h, 10 µM stood at 93.5%.

Consider `O=C(/C=C/c1cccc([N+](=O)[O-])c1)Nc1ccc(Cl)c(-c2nc3ccccc3o2)c1` [CBK264610], for which the viability at 28.5 h, 10 µM came to 102%.

As for `COc1cc(C(=O)ON=C(N)Cc2cccc3ccccc23)cc(OC)c1OC` [CBK264611], the viability at 28.5 h, 10 µM came out at 95.9%.

For the molecule `COC(=O)c1ccccc1NC(=O)CN(c1cccc(Cl)c1Cl)S(C)(=O)=O` [CBK264612], the viability at 28.5 h, 10 µM stood at 115%.

For `CCOC(=O)CN1C(=O)S/C(=C/c2cc(Cl)c(OCC(=O)O)c(Br)c2)C1=O` [CBK264614], the viability at 28.5 h, 10 µM was found to be 106%.

By viability is commonly meant a read-out of living cells in per cent, often relative to untreated cells.

The record behind these values is article PMC12040169 (PLOS Biology, 2025).
